Measurements as given in patent US9498477B2, “Compositions and uses thereof to ameliorate pain” (Purdue Research Foundation, priority 2011, dated 2016).

Experiments:
[1] = tested on: Sprague Dawley rats models of spinal contusion injury; settings: chronic SCI (5 months), single intraperitoneal dose 5 mg/kg body weight
Text: (§1) Spinal contusion injury. Sprague Dawley rats are subjected to a spinal contusion injury according to the procedure described by Basso et al., Graded histological and locomotor outcomes after spinal cord contusion using the NYU weight-drop device versus transaction, Exp Neurol. […] After 20 weeks, the animals are divided into untreated injury and treated injury groups, each of which is compared to an uninjured control.
Test compound treatment. A solution of test compound, such as hydralazine hydrochloride (Sigma), is prepared with phosphate buffered saline. The solution is sterilized through a filter and stored at 4° C. […] Untreated animals are administered saline vehicle intraperitoneally. Blood pressures are monitored using a CODA 2 system (Kent Scientific Corp.).
Cold allodynia evaluation. Sprague Dawley rats models of spinal contusion injury are divided into untreated injury and treated injury groups. The untreated injury groups are injected daily with vehicle as described herein. The treated injury groups are injected daily with test compound as described herein. Uninjured controls, untreated injury groups, and treated injury groups are evaluated for pain according to the procedure described by Choi et al., Behavioral signs of ongoing pain and cold allodynia in a rat model of neuropathic pain, Pain 59:369-376 (1994).

[2] = tested on: Sprague Dawley rats models of spinal contusion injury; settings: chronic SCI (5 months), single intraperitoneal dose 5 mg/kg body weight; remark: listed apart in the source
Text: as §1
Test compound treatment. […] The solution is sterilized through a filter and stored at 4° C. […] Untreated animals are administered saline vehicle intraperitoneally. Blood pressures are monitored using a CODA 2 system (Kent Scientific Corp.).
Mechanical allodynia evaluation. Sprague Dawley rats models of spinal contusion injury are divided into untreated injury and treated injury groups. The untreated injury groups are injected daily with vehicle as described herein. The treated injury groups are injected daily with test compound as described herein. Uninjured controls, untreated injury groups, and treated injury groups are evaluated for pain according to the procedure described by Choi et al., Behavioral signs of ongoing pain and cold allodynia in a rat model of neuropathic pain, Pain 59:369-376 (1994).

In the case of `NNc1nncc2ccccc12` [hydralazine], the “time to improvement of cold-induced pain after the injection” value [1] is reported as ≤ 2 h, the “duration of efficacy of the treatment, cold allodynia” value ([1]; FIG. 2 panel B) is reported as “at least 10 days” and the “time to improvement of mechanical allodynia after the injection” value [2] is reported as ≤ 2 days. For the same molecule, the “duration of efficacy of the treatment, mechanical allodynia” value ([2]; FIG. 2 panel A) was “at least 10 days”.
